The values below come from patent US11814444B2, “Cyclic polypeptides for PCSK9 inhibition” (Ra Pharmaceuticals, Inc., priority 2018, dated 2023).

Common to all, as to type: binding
Experiment [1] deals with human PCSK9 / human LDLR EGFa domain interaction (Homo sapiens, UniProt Q8NBP7). Kind of experiment: TR-FRET assay of inhibition of the PCSK9-LDLR protein-protein interaction. To be noted: 20 nM avitag-biotinylated human PCSK9, 20 nM his-tagged human LDLR EGFa domain, 2 hours, room temperature. The method in brief:
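Readout is the TR-FRET signal between europium anti-6×His on his-tagged LDLR EGFa domain and Ulight streptavidin on biotinylated PCSK9, both proteins at 20 nM and both detection reagents at 5 nM. Incubation lasted 2 hours at room temperature; compounds were run in dose-response with a 4-parameter fit.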
For orientation: In TR-FRET formats the signal depends on donor and acceptor labels being close together.

Experiment [2] has as its target T1, PCSK9 (Homo sapiens, UniProt Q8NBP7). Kind of experiment: PCSK9 Alexa FRET Standard assay (displacement of AlexaFluor647 tagged cyclic peptide Reagent A). Conditions: 0.5 nM PCSK9, 20 nM AF cyclic peptide Reagent A. The method in brief: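 TR-FRET displacement: 0.5 nM biotinylated PCSK9 with 1.25 nM Strep-Eu and 20 nM AlexaFluor-tagged cyclic peptide (final) in 50 mM HEPES pH 7.4, 0.15 M NaCl, 5 mM CaCl2, 0.01% BSA, 0.01% P20, ≥2 h at room temperature. IC50 from sigmoidal fit, converted to Ki via peptide KD; falling Eu counts flagged false positives.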

Experiment [3] deals with T1, PCSK9. The experiment in a line: PCSK9 Alexa FRET Plus assay (displacement of AlexaFluor647 tagged cyclic peptide Reagent B). To be noted: 0.5 nM PCSK9, 960 nM AF cyclic peptide Reagent B. The protocol:
A solution containing 1 nM biotinylated PCSK9+2.5 nM Lance Streptavidin Europium (Strep-Eu) was made in 50 mM HEPES pH 7.4, 0.15 M NaCl, 5 mM CaCl2), 0.01% BSA, and 0.01% Surfactant P20. A separate solution containing 1920 nM of the AlexaFluor tagged cyclic peptide was made in the same buffer system. An Echo was used to transfer 0.075 ul of compound plus 0.675 ul of DMSO to each well of an assay plate followed by the addition of 15 ul of PCSK9+Stept-Eu and 15 ul of AF peptide. The final assay volume was 30.750 ul containing 0.5 nM PCSK9, 1.25 nM Strep-Eu, and 960 nM AF cyclic peptide. The reaction was incubated at room temperature for at least two hours prior to fluorescence measurements using an Envision Multilabel Reader. IC50 values were determined by fitting data to a sigmoidal dose-response curve using nonlinear regression. Ki was then calculated from the IC50 and the KD of AF cyclic peptide. Counts (B-counts) of the europium-labeled PCSK9 were followed to observe if compounds were adversely affecting PCSK9. A fall off of the B-counts likely indicated a false positive of inhibition. Data from this procedure was reported as “P=‘numerical value’ (nanomolar)”

Numbered stars: 1 amine (or outer) side, 2 acyl side, 3 side chain; on linkers, the order of the positions; unused ones are H or OH. Bridge positions count the residues as written; N and C are the ends. Square brackets hold non-standard residues; d marks the D form. Peptide text beside a SMILES is read from it. X3 = O=C([C@@H]1C[C@@H](SCc2ccc(C[*:3])cc2)CN1[*:1])[*:2]; X2 = O=C([C@@H]1C[C@@H](SC/C=C/C[*:3])CN1[*:1])[*:2]; Trp(7-aza) = N[C@@H](Cc1c[nH]c2ncccc12)C(=O)O; X1 = C[C@@](N[*:1])(C(=O)[*:2])c1ccccc1; mXylylene = c1cc(C[*:1])cc(C[*:2])c1; Aad = N[C@@H](CCCC(=O)O)C(=O)O; Pen = CC(C)(S)[C@H](N)C(=O)O; Tle = CC(C)(C)[C@H](N)C(=O)O; αMeV = CC(C)[C@](C)(N)C(=O)O; Thp = NC1(C(=O)O)CCOCC1; Aib = CC(C)(N)C(=O)O

T1 sequence (Q8NBP7 153-692): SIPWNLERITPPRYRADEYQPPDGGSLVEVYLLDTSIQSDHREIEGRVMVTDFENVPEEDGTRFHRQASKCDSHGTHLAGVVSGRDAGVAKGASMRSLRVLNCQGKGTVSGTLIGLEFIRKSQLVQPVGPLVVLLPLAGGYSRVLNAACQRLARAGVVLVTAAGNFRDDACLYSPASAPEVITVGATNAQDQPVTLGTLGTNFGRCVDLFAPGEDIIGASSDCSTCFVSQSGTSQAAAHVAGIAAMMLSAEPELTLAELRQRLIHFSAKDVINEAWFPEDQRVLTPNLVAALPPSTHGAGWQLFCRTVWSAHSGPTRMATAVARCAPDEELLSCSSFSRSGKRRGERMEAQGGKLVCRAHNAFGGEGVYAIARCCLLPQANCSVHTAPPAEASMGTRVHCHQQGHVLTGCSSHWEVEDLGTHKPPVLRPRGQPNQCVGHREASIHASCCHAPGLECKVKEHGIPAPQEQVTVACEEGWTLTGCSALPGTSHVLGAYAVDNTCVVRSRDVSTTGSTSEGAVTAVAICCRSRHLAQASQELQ
human PCSK9 / human LDLR EGFa domain interaction, sequence (Q8NBP7 153-692): as above
human PCSK9 / human LDLR EGFa domain interaction, sequence (Q8NBP7 31-152 partner limits assumed): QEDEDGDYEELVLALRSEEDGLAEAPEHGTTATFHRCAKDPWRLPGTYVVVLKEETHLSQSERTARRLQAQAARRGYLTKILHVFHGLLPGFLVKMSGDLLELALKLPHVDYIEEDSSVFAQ

As a reminder, the IC50 is the concentration at which inhibition is half-maximal. As to `CC(=O)N[C@H]1CSCc2cccc(c2)CSC[C@H](C(N)=O)NC(=O)[C@H]([C@@H](C)O)NC(=O)[C@](C)(C(C)C)NC(=O)[C@H](Cc2ccc(O)cc2)NC(=O)[C@H](C)NC(=O)C2(CCOCC2)NC(=O)[C@H](Cc2c[nH]c3ncccc23)NC(=O)[C@H]([C@@H](C)O)NC(=O)[C@@H]2CCCN2C(=O)[C@H](Cc2ccc(O)cc2)NC(=O)[C@H](C(C)(C)C)NC1=O` [Compound 187] (Ac-C[Tle]YPT[Trp(7-aza)][Thp]AY[αMeV]T[dC]-NH2; linker 1-12 via mXylylene), the IC50 (in experiment [1]; on PCSK9 [2]; at PCSK9 [3]) was 1 to 100 nM each time.

In the case of `CC(=O)N[C@H]1CSCc2cccc(c2)CSC[C@H](C(N)=O)NC(=O)[C@H]([C@@H](C)O)NC(=O)[C@](C)(C(C)C)NC(=O)[C@H](Cc2ccc(O)cc2)NC(=O)[C@H](C)NC(=O)[C@](C)(c2ccccc2)NC(=O)[C@H](Cc2c[nH]c3ncccc23)NC(=O)[C@H]([C@@H](C)O)NC(=O)[C@@H]2CCCN2C(=O)[C@H](Cc2ccc(O)cc2)NC(=O)[C@H](C(C)(C)C)NC1=O` [Compound 190] (Ac-C[Tle]YPT[Trp(7-aza)][X1]AY[αMeV]T[dC]-NH2; linker 1-12 via mXylylene), the IC50 in experiment [1] was in the range of 21000 to 50000 nM; at PCSK9 [2], 1000 to 21000 nM; on PCSK9 [3] it was 250 to 2000 nM.

For the compound `CC(=O)N[C@H]1CCCCNC(=O)CCC[C@@H](C(N)=O)NC(=O)[C@H]([C@@H](C)O)NC(=O)[C@](C)(C(C)C)NC(=O)[C@H](Cc2ccc(O)cc2)NC(=O)[C@H](C)NC(=O)C(C)(C)NC(=O)[C@H](Cc2c[nH]c3ncccc23)NC(=O)[C@H]([C@@H](C)O)NC(=O)[C@@H]2C[C@@H]3CN2C(=O)[C@H](Cc2ccc(O)cc2)NC(=O)[C@@H](NC1=O)C(C)(C)SCc1ccc(cc1)CS3` [Compound 349] (Ac-K[Pen]Y[X3]T[Trp(7-aza)][Aib]AY[αMeV]T[Aad]-NH2; lactam 1-12; thioether 2-4), the IC50 (in experiment [1]; on PCSK9 [2]) was 1 to 100 nM each time.

Take `CC(=O)N[C@H]1CCCCNC(=O)CCC[C@@H](C(N)=O)NC(=O)[C@H]([C@@H](C)O)NC(=O)[C@](C)(C(C)C)NC(=O)[C@H](Cc2ccc(O)cc2)NC(=O)[C@H](C)NC(=O)C(C)(C)NC(=O)[C@H](Cc2c[nH]c3ncccc23)NC(=O)[C@H]([C@@H](C)O)NC(=O)[C@@H]2C[C@@H]3CN2C(=O)[C@H](Cc2ccc(O)cc2)NC(=O)[C@@H](NC1=O)C(C)(C)SC/C=C/CS3` [Compound 350] (Ac-K[Pen]Y[X2]T[Trp(7-aza)][Aib]AY[αMeV]T[Aad]-NH2; lactam 1-12; thioether 2-4): the IC50 (in experiment [1]; at PCSK9 [2]) was 100 to 1000 nM each time.
